Tests used:
[1] = Photolysis of PAGs in acetonitrile under 365 nm irradiation (photoreactivity); format: physicochemical; conditions: for Solubility × Photoreactivity: product of solubility in PGMEA and relative photoreactivity at 365 nm
Excerpt: A photoresist composition typically comprises PAG, polymers, additives and solvents. The performance of a photoresist composition is mainly dependent on the properties of the PAG and polymer components. To formulate a high-performance photoresist composition, more photosensitive PAGs are typically selected. The photosensitivity of a PAG is typically directly related to the strength of the generated acid and the photoreactivity of the PAG. For a series of PAGs producing the same latent acid, their photosensitivity is related only to their photoreactivity. Thus evaluating the photosensitivity of a PAG can be achieved by studying its photoreactivity. The higher photoreactivity, the higher photosensitivity. The photoreactivity can be investigated by photolysis of a PAG in its dilute solution under low exposure intensity (to avoid side reactions which don't generate the desired acid). The change in the concentration of a PAG upon irradiation can be determined by measuring the absorbance of the PAG at the maximum absorption wavelength.
(§1) Photolysis of PAGs was carried out in acetonitrile in air at room temperature. The sodium salt of tetrabromophenol blue (TBPBNa), an acid indicator dye, which has a maximum absorption at 618 nm, was purchased from Aldrich (indicator grade) and used as received. Irradiation of the solution of the PAGs (3×10^−5 M) was performed using a Cole-Parmer UV 15 W bench lamp (EW-97605-50) at 365 nm. Light intensity was measured using an UV Power Puck II radiometer from EIT Inc. UV-Vis spectra were run on a Thermo Scientific Evolution 201 UV-visible spectrophotometer.
Photolysis of NIT, comparative compound A, D-1, and D-2 was examined in acetonitrile. The absorption band at 397 nm gradually decreases upon irradiation, indicating the progress of photoreaction with the increase of exposure dose of energy. Assuming the photoreaction is first-order, plot of natural log of changes in absorbance with exposure dose of energy gives the photoreaction constant of D-2 (i.e. the slope of the linear trendline) (FIG. 2). The photoreaction constants of other compounds were similarly determined under the same irradiation condition.
Comparing the constants of A, D-1, and D-2 with that of NIT normalized to one gives the relative photoreactivity (Table 7). The photoreactivity for PAG (e.g. D-2) according to the present disclosure is ˜8 times greater than that of NIT and ˜3 times greater than that of Comparative Compound A. The formation of acid upon irradiation was confirmed by observing the spectral changes of the acid indicator, TBPBNa at 618 nm.

[2] = Solubility in PGMEA; format: physicochemical; conditions: in propylene glycol monomethyl ether acetate (PGMEA)
[3] = UV-Vis spectra of PAG compounds; format: physicochemical; conditions: for absorbance at i-line of a mercury lamp: compared with NIT (FIG. 4); for strong absorption band: 0.001% w/v (FIG. 4)
Description: FIG. 4 is a UV-Vis spectra of compounds NIT, D-1, and D-2 in PGMEA and D-4 in acetonitrile (0.001% w/v).
as §1

Row | Solubility × Photoreactivity [1] [%] | melting point [°C] | Solubility (w/w %) in PGMEA [2] [% w/w %] | absorbance at i-line of a mercury lamp [3] | strong absorption band ([3]; in PGMEA) [nm] | absorption band ([1]; in acetonitrile, band decreases upon irradiation (FIG. 1)) [nm] | g-line absorbance ([3]; FIG. 4) | strong absorption band ([3]; in acetonitrile) [nm] | SMILES
1 | 12.4 | 151 to 152 | 6.9 | much larger than that of NIT | 363 |  |  |  | CCCCOC(=O)/C=C/c1ccc2c3c(cccc13)C(=O)N(OS(=O)(=O)C(F)(F)F)C2=O [Compound D-1]
2 | 13.1 | 182 to 184 | 1.6 | much larger than that of NIT | 397 | 397 |  |  | O=C1c2cccc3c(/C=C/c4ccccc4)ccc(c23)C(=O)N1OS(=O)(=O)C(F)(F)F [Compound D-2]
3 |  | 227 to 229 |  |  |  |  |  |  | CC(C)(C)c1ccc(/C=C/c2ccc3c4c(cccc24)C(=O)N(OS(=O)(=O)C(F)(F)F)C3=O)cc1 [Compound D-3]
4 |  |  |  | much larger than that of NIT |  |  | large | 415 | CC(C)(C)Oc1ccc(/C=C/c2ccc3c4c(cccc24)C(=O)N(OS(=O)(=O)C(F)(F)F)C3=O)cc1 [Compound D-4]

Further lines, the molecule ahead of its results:

Row | SMILES | Solubility × Photoreactivity [1] [%] | melting point [°C] | Solubility (w/w %) in PGMEA [2] [% w/w %] | absorbance at i-line of a mercury lamp [3] | strong absorption band ([3]; in PGMEA) [nm] | absorption band ([1]; in acetonitrile, band decreases upon irradiation (FIG. 1)) [nm] | g-line absorbance ([3]; FIG. 4) | strong absorption band ([3]; in acetonitrile) [nm]
5 | CCC(C)Oc1ccc(/C=C/c2ccc3c4c(cccc24)C(=O)N(OS(=O)(=O)C(F)(F)F)C3=O)cc1 (stereo not drawn) | 37.4 |  | 4.3 |  |  |  |  | 
6 | O=C1c2cccc3cccc(c23)C(=O)N1OS(=O)(=O)C(F)(F)F [NIT, N-Hydroxynaphthalimide triflate, reference compound] | 1.7 |  | 1.7 |  |  |  |  | 
7 | O=C1c2cccc3c(C#Cc4ccccc4)ccc(c23)C(=O)N1OS(=O)(=O)C(F)(F)F [Comparative Compound A, reference compound] | 2.5 |  | 1.0 |  |  |  |  | 
